Measured values as given in BigSolDB 2.1.

CO/N=C1\C[C@]2(C[C@@H]3C[C@@H](C/C=C(\C)C[C@@H](C)/C=C/C=C4\CO[C@@H]5[C@H](O)C(C)=C[C@@H](C(=O)O3)[C@]45O)O2)O[C@H](/C(C)=C/C(C)C)[C@H]1C
solubility (mole fraction)
Conditions	278.15 K	283.15 K	288.15 K	293.15 K	298.15 K	303.15 K	308.15 K	313.15 K	318.15 K	323.15 K
in ethanol	0.0532	0.0674	0.0814	0.097	0.114	0.133	0.153	0.173	0.196	0.223
in ethylene glycol	0.00364	0.0049	0.00631	0.00796	0.00975	0.0117	0.0137	0.0157	0.0181	0.021
in isopropanol	0.00799	0.0107	0.0139	0.0178	0.0211	0.0253	0.0296	0.0346	0.04	0.0455
in methanol	0.0243	0.0306	0.0383	0.0454	0.0545	0.0634	0.0729	0.0822	0.0927	0.105
in water	3.75e-06	5.13e-06	6.71e-06	8.61e-06	1.08e-05	1.33e-05	1.59e-05	1.85e-05	2.14e-05	2.49e-05
